Measured values taken from patent US20250325499A1, “IMMUNO-ABLATION TREATMENT FOR SOLID TUMORS” (Northwestern University, priority 2022, published 2025).

Experiments:
N1S1 cells [1] = assay: Cellular uptake of curcumin (confocal images, flow cytometry)
Experimental: Briefly, the N1S1 cells (1×10^5/mL) were cultured in a confocal dish (MatTek, 35 mm dish with 14 mm glass bottom). The cellular nucleus was stained with DAPI. Cell membranes were stained with Dil red (D282) following the protocol from ThermoFisher. […] The cells were then fixed by 4% paraformaldehyde and visualized with a confocal microscope (Nikon AIRS).
(§4) N1S1 cells were seeded onto the six-well plate (2×10^5/well). […] After washing the cells with PBS, they were fixed with 4% formalin at room temperature for 15 minutes. The results were examined by flow cytometry.

N1S1 cells [2] = assay: Cell viability assay (CCK-8); format: cell-based
Experimental: N1S1 cells (1×10^4/mL) were seeded onto 96-well plates. […] Then the cells were washed with PBS and replenished with fresh media. After 24 h or 48 hr incubation, the cells viability was measured with CCK-8 assay.

GPX-4 = test system: GPX-4
Experimental: (§1) N1S1 cells were seeded in the 8 cm culture dishes and cultured at 5% CO2, 37° C. overnight. The cells were treated with various groups for […]: ethanol (25, 20, 15, 10, and 5%) for 4, 12, and 24 h, and 15% ethanol+Cur1, 10% ethanol+Cur1, 15% ethanol+Cur2, 10% ethanol+Cur2, 15% ethanol+Cur3, and 10% ethanol+Cur3 for 24 h. […] No treatment of N1S1 was used as control. The cell lysates were collected and analyzed by Western blotting according to the manufacturer's instructions. Antibodies were used listed as below: GPX4 Rabbit anti-Human, Mouse, Rat, Polyclonal, Invitrogen™, catalog number: PIPA579321, dilution 0.1-0.5 μg/mL; p-STAT3 Rabbit mAb, cell signaling, catalog number: 9145, dilution 1:2000; p-p65 Rabbit mAb, cell signaling, catalog number: 3033, dilution 1:1000; PD-L1 Polyclonal Antibody, Invitrogen™, catalog number: PA5-20343, dilution 0.5-2 μg/mL; β-Actin (8H10D10) Mouse mAb (HRP Conjugate), cell signaling, catalog number: 12262, dilution 1:1000.
Western blot assay was then used to identify specific molecules associated with cancer cell response to the ethanol treatments. […] However, relatively low ethanol concentrations (10, 5, and 1%) increased the GPX-4 level at 12 h post-treatment compared to 4 h post-treatment, indicating a defensive response to the oxidative stress caused by ethanol. […] This is in agreement with the results of the cell viability and Annexin-V/PI assays (FIG. 1).

p-STAT3 = assay: Western blot of p-STAT3 in N1S1 hepatoma cells; format: cell-based; conditions: ethanol 10, 5 and 1%
Experimental: as §1
(§2) Western blot assay was then used to identify specific molecules associated with cancer cell response to the ethanol treatments. […] However, relatively low ethanol concentrations (10, 5, and 1%) increased the GPX-4 level at 12 h post-treatment compared to 4 h post-treatment, indicating a defensive response to the oxidative stress caused by ethanol. […]

p-p65 = assay: Western blot of p-p65 in N1S1 hepatoma cells; format: cell-based; conditions: ethanol 10, 5 and 1%
Experimental: as §1, §2

PD-L1 = assay: Western blot / flow cytometry of PD-L1 in N1S1 hepatoma cells; format: cell-based; conditions: ethanol 10, 5 and 1%
Experimental: as §1, §2

[3] = test system: N1S1 HCC tumors in rat liver; assay: In vivo abscopal effect of ethanol-curcumin treated N1S1 cells, tumor volume by MRI; conditions: left lobe inoculated with treated N1S1 cells (10% ethanol or 10% ethanol plus Cur2 0.5% w/v) mixed with non-treated cells, MRI 8-day post-inoculation
Source text: (§3) The rats in the control group were only inoculated in the right lobe of the liver with 5 million non-treated N1S1 cells. The right-side tumors (arrow in FIG. 5A) were established for testing abscopal effect. These tumors were collected for an immune status assay. The tumor in the control group was used as the baseline.

[4] = test system: N1S1 HCC tumors in rat liver; assay: In vivo immune status of right-side tumors by flow cytometry; conditions: 8 days post treatment
Source text: To test in vivo tumor neutrophil cell populations, rats were sacrificed, and tumors were harvested at 8 days post treatment and examined by flow cytometry after immunofluorescence staining with anti-CD45-BV605, anti-Granulocytes-PE, and anti-CD11b/c-PerCP/eF710. To determine the intra-tumoral infiltration of CD8+ (CD3+CD4-CD8+), lymphocytes were stained with anti-CD45-BV605, anti-CD3-FITC, anti-CD11b/c-PerCP/eF710, anti-CD4-APC/Cy7, anti-CD8-V450, and anti-IFN-gamma-AF647. To determine the intra-tumoral infiltration of CD4+ (Treg), lymphocytes were stained with anti-CD45-BV605, anti-CD3-FITC, anti-CD11b/c-PerCP/eF710, anti-CD4-APC/Cy7, anti-CD8-V450, anti-CD25-PE, and anti-Foxp3-APC. All antibodies were diluted with the ratio of 1:100 and signal color beads (OneComp eBeads™ Compensation Beads) and unstained bead were used for compensation.
as §3

N1S1 cells [5] = test system: N1S1 cells
Experimental: as §4

| cellular uptake of curcumin (green fluorescence signal) (N1S1 cells [1]; higher concentration of ethanol in ethanol-curcumin solution) | time curcumin maintained in N1S1 hepatoma cells (N1S1 cells [1]; uptake amplified by the ethanol solution) | Compound | cell-killing effect on N1S1 hepatoma cells (CCK-8 cell viability) (N1S1 cells [2]; ethanol 15% to 1%, 5-min and 10-min coincubation) | growth inhibition of N1S1 hepatoma cells (CCK-8 cell viability) (N1S1 cells [2]; ethanol 25% and 20%, 5-min and 10-min coincubation, 24 h and 48 h post-treatment) | liver cancer cell N1S1 growth (N1S1 cells [2]; ethanol 25% to 5%, 10 min coincubation) | cell viability at 48 h post-treatment (N1S1 cells [2]; lower ethanol concentrations, 5-min and 10-min coincubation, 48 h vs 24 h) | GPX-4 level at 12 h compared to 4 h post-treatment (GPX-4; ethanol 10, 5 and 1%) | expression of GPX-4 at 24 h post-treatment (GPX-4; ethanol 10, 5 and 1%, 24 h) | GPX-4 level (GPX-4; ethanol 25, 20 and 15%, 4 h, 12 h and 24 h) | p-STAT3 activation (p-STAT3) | p-p65 activation (p-p65) | PD-L1 expression (PD-L1) | average tumor volume of right-side HCC tumors [3] | IL-17 T cells in right-side tumor, difference among groups [4] | neutrophil population in right-side tumor compared to control [4] | population of Tregs in right-side tumor compared to control group [4] | early apoptosis and late apoptosis populations (Annexin-V/PI) (N1S1 cells [5]; 10-min coincubation, various ethanol concentrations, found even at 0 h) | live cell populations at 48 h (N1S1 cells [5]; ethanol 15%, 10%, 5%, 1%, 48 h) | late apoptosis population at 48 h compared to 0 h and 24 h (N1S1 cells [5]; ethanol 25% and 20%, 10-min coincubation) | live cell populations (Annexin-V negative and PI negative) (N1S1 cells [5]; ethanol 25% and 20%, all time points (0, 24, 48 h)) |
| --- | --- | --- | --- | --- | --- | --- | --- | --- | --- | --- | --- | --- | --- | --- | --- | --- | --- | --- | --- | --- |
| higher cellular uptake | at least 48 h | COc1cc(/C=C/C(=O)CC(=O)/C=C/c2ccc(O)c(OC)c2)ccc1O [curcumin, (1E,6E)-1,7-bis(4-hydroxy-3-methoxyphenyl)hepta-1,6-diene-3,5-dione] |  |  |  |  |  |  |  |  |  |  |  |  |  |  |  |  |  |  |
|  |  | CCO [ethanol] | modest cell-killing effect | efficient growth inhibition | inhibits | recovery of cell viability | increased | reduced to normal levels | consistently low | consistent activation | consistent activation | upregulation | about 130 mm^3 | no significant difference | no significant difference | decreased population | Dosage-dependent increase | higher live cell populations | decreased late apoptosis population | remained low |
